Data published in ChEMBL document CHEMBL1129252, “Identification of a 3-hydroxylated tacrine metabolite in rat and man: metabolic profiling implications and pharmacology” (J Med Chem, 1996).

What was measured:
Acetylcholinesterase [1] = target: T1, Acetylcholinesterase (Rattus norvegicus, UniProt P37136)
T1 sequence (P37136 whole entry): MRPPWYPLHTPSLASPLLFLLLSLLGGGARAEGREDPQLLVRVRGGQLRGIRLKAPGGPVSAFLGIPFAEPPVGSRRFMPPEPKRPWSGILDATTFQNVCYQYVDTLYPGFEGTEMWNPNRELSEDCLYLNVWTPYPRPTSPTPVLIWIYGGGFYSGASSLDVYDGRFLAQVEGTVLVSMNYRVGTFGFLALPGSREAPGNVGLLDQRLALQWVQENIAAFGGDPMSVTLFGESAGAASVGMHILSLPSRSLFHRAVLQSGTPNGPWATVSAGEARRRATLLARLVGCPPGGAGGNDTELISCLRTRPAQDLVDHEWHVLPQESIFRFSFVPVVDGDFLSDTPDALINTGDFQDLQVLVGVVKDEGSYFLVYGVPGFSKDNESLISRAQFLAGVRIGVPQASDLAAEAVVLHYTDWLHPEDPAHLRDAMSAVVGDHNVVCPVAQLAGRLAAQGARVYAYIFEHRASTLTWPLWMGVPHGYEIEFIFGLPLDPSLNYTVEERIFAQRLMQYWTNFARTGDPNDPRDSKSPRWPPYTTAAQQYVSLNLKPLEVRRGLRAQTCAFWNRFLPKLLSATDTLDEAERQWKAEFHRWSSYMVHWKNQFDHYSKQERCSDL
Description: Inhibition of Acetylcholinesterase in rat red blood cell

Acetylcholinesterase [2] = target: T2, Acetylcholinesterase (Mus musculus, UniProt P21836)
T2 sequence (P21836 whole entry): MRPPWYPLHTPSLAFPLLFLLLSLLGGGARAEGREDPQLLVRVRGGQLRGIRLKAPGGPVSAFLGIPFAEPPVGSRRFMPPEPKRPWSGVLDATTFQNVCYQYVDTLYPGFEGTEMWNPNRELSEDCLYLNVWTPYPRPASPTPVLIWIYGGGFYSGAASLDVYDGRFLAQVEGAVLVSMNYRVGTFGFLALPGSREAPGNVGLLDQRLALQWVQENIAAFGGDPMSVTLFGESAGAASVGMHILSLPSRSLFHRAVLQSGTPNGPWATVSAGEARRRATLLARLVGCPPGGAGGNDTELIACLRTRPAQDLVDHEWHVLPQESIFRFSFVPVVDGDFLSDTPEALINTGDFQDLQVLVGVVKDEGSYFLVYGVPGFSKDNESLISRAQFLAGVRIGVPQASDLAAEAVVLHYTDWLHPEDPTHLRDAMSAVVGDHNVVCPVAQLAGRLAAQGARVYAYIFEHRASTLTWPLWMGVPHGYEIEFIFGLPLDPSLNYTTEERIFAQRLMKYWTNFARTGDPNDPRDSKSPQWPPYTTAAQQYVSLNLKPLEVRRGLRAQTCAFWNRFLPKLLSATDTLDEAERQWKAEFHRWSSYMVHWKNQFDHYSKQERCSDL
Description: Inhibition of Acetylcholinesterase in mouse red blood cell

Acetylcholinesterase [3] = target: Acetylcholinesterase (Homo sapiens, UniProt P22303)
Sequence of Acetylcholinesterase (Homo sapiens, UniProt P22303) (P22303 whole entry): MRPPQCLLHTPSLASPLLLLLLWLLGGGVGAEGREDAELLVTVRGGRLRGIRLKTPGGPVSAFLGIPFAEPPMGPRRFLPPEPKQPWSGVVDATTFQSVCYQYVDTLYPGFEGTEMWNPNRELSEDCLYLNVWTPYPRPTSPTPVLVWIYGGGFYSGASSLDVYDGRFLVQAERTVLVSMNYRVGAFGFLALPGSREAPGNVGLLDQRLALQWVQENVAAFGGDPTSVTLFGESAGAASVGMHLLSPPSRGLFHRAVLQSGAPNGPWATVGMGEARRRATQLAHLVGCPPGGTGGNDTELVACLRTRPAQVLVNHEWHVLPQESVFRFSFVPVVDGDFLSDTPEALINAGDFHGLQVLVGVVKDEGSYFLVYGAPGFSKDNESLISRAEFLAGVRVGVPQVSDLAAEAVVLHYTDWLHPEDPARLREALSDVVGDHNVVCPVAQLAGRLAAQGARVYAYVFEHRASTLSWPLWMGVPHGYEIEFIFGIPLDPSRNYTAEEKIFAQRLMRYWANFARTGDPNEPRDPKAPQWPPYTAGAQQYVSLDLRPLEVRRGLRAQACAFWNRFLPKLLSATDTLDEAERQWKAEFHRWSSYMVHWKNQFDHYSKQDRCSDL
Description: Inhibition of Acetylcholinesterase in human red blood cell

Row | SMILES | IC50 (Acetylcholinesterase [1]) [nM] | IC50 (Acetylcholinesterase [2]) [nM] | IC50 (Acetylcholinesterase [3]) [nM]
1 | Nc1c2c(nc3ccccc13)CCCC2O (stereo not given) [VELNACRINE] | 361 | – | –
2 | Nc1c2c(nc3ccccc13)C(O)CCC2 (stereo not given) | 411 | 1430 | 521
3 | Nc1c2c(nc3ccccc13)CC(O)CC2 (stereo not given) [7-HYDROXYTACRINE] | 483 | 1210 | 623
4 | Nc1c2c(nc3ccccc13)CCC(O)C2 (stereo not given) | 1770 | 4820 | 1610
